Experimental data reported in PMC5715595 (British Journal of Pharmacology, 2017).
Where two headings read alike, the source gives them in different places.

Key:
[1] = target: T1, KV7.1/mink (Homo sapiens, UniProt P51787); assay: Whole-cell patch clamp on KV7.1/mink (IKs); type: cell-based
T1 construct: expressed in transfected cells
Experimental: (§1) and CiPA Initiative Studies
(§2) =============================================================
(§3) In vitro studies on other ion channels […]
(§4) through NaV1.5, KV4.3, KV7.1/mink, Kir2.1, KV1.5, CaV1.2 and CaV3.2 channels.
(§5) 35-mm dish culture in the conditions mentioned in standard cell culture conditions. Experiments were performed with a cell density enabling isolated cells for patch clamping. Cells were continuously superfused with extracellular medium (1-2 mL∙minute-1) at room temperature.
(§6) D-glucose 10, HEPES 10 and the final pH adjusted to 7.4±0.02 with NaOH for recording NaV1.5, KV4.3, KV7.1/mink, Kir2.1, KV1.5 and CaV3.2 currents. It was (in mM): NaCl 110, KCl 4, BaCl2 20, MgCl2 1, D-glucose 20, HEPES 10 and the final pH adjusted to 7.4 ± 0.02 with NaOH for recording the CaV1.2 current. Compositions of the intracellular solution to fill the pipette are […]
(§7) Composition of intracellular solutions used to fill pipette to record currents through NaV1.5, KV4.3, KV7.1/mink, Kir2.1, KV1.5, CaV1.2 and CaV3.2 channels
(§8) Solution to fill the pipette (mM)
(§9) Creatine-phospho kinase 50 U∙mL-1
(§10) After formation of a Gigaohm seal between the patch electrodes and individual cells (pipette resistance range: 2.0 MΩ - 7.0 MΩ; seal resistance range: > 1 GΩ) the cell membrane across the pipette tip was ruptured to assure electrical access to the cell interior (whole-cell patch-configuration). In case the quality of the seal was poor, the process of seal formation was repeated with a different cell and a new pipette. As soon as a stable seal was established outward tail currents were measured upon pulses described in the Table S2. If current density was judged to be too low for measurement, another cell was recorded. […]
(§11) voltage stimulation protocol indicated in the next table continuously run until the steady-state level of block was reached.
(§12) Stimulation conditions used to record currents through NaV1.5, KV4.3, KV7.1/mink, Kir2.1, KV1.5, CaV1.2 and CaV3.2 channels
(§13) Ion channel Holding potential Pulse / duration Frequency Reference compound […]
(§14) (resting / fast / slow sweeps at one (10 mM) inactivated concentration)

[2] = in house data
[3] = target: α2A‐adrenoceptor (Homo sapiens, UniProt P08913); assay: Affinity at α2A-adrenoceptor; type: binding
Sequence of α2A‐adrenoceptor (P08913 whole entry): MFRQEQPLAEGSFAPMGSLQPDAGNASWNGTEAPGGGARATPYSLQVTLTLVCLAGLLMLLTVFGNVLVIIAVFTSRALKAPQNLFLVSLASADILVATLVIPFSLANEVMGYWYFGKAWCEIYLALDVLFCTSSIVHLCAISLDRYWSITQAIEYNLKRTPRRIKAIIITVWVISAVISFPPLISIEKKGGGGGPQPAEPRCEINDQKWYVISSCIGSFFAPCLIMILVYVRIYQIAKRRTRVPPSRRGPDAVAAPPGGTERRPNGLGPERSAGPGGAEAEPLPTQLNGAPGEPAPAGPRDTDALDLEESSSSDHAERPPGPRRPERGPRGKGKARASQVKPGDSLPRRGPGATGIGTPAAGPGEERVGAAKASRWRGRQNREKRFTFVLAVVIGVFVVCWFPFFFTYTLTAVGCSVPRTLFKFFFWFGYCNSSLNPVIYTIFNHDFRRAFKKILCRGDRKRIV

[4] = human, 40 mg daily dosing; ref Shah et al., 2016; cited from earlier work
[5] = target: α2C‐adrenoceptor (Homo sapiens, UniProt P18825); assay: Affinity at α2C-adrenoceptor; type: binding
Sequence of α2C‐adrenoceptor (P18825 whole entry): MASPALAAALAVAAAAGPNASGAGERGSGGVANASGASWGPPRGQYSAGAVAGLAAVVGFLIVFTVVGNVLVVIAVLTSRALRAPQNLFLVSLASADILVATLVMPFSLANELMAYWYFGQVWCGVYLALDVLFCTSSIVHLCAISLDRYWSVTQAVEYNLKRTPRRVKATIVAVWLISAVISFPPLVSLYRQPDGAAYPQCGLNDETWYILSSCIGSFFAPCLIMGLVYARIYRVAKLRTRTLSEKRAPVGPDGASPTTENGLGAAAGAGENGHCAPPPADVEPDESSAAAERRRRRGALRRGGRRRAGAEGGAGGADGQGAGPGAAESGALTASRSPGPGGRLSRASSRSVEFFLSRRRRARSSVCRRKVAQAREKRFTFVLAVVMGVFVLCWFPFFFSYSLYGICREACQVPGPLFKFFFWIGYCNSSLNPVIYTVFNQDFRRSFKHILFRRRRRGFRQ

[6] = target: T2, Kir2.1 (Homo sapiens, UniProt P63252); assay: Whole-cell patch clamp on Kir2.1 (IK1); type: cell-based
T2 construct: expressed in transfected cells
T2 sequence (P63252 1-427): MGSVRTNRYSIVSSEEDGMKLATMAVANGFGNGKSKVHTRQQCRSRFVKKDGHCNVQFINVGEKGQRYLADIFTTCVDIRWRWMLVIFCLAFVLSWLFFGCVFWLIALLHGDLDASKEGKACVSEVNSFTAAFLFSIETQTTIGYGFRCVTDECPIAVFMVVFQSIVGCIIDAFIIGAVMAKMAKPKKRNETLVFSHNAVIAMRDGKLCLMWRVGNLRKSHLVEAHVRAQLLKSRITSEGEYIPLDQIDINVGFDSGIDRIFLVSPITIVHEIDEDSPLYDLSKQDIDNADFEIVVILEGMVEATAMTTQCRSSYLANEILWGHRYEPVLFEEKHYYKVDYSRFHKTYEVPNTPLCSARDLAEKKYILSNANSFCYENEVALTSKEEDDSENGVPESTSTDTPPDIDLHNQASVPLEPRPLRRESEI
Experimental: as §1, §2, §3, §4, §5, §6, §7, §8, §9, §10, §11, §12, §13, §14

[7] = target: Kv11.1 (hERG) channel (Homo sapiens, UniProt Q12809); assay: cell-based
Sequence of Kv11.1 (hERG) channel (Q12809 whole entry): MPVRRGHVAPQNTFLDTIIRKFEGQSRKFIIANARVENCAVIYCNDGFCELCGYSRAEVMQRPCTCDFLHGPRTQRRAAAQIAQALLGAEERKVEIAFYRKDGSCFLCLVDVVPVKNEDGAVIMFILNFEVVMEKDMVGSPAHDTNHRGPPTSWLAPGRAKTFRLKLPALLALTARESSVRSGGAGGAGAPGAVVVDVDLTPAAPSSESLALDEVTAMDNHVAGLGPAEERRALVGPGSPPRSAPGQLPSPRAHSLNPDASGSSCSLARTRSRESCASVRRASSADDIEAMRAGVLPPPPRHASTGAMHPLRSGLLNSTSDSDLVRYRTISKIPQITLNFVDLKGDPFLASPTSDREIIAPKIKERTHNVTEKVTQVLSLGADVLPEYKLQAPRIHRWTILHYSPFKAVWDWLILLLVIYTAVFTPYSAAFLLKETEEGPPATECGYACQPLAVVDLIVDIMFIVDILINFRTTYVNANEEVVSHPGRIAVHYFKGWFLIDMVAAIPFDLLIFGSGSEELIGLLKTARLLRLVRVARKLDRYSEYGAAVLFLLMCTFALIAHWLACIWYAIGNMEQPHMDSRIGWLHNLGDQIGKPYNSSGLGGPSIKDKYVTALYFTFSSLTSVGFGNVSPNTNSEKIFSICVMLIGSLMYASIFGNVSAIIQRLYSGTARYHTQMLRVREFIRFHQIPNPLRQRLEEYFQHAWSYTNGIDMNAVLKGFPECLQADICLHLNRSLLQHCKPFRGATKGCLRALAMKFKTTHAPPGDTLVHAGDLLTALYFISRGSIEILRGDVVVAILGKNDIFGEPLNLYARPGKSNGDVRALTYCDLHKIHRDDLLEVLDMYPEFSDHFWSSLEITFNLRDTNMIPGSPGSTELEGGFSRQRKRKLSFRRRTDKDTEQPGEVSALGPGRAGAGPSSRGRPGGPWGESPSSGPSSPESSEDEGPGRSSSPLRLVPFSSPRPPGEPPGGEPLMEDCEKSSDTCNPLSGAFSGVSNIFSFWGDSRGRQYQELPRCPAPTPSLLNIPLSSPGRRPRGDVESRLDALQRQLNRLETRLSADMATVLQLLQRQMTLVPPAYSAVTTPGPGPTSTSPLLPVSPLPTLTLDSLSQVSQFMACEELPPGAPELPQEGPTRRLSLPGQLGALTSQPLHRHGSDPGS
Experimental: A whole‐cell patch clamp study was performed on isolated cells at room temperature. Cells were initially clamped at −80 mV, and biphasic pulses (4.8 s at +20 mV and then for 5 s at −50 mV) were applied at a 0.067 Hz frequency. […] Peak tail current amplitudes for each concentration were measured and averaged for four consecutive stimuli. Vehicle control tested in parallel evaluated the spontaneous run‐down of hERG current over time in testing conditions and the corresponding correction was applied.

[8] = target: T3, KV1.5 (Homo sapiens, UniProt P22460); assay: Whole-cell patch clamp on KV1.5 (IKur); type: cell-based
T3 construct: expressed in transfected cells
T3 sequence (P22460 whole entry): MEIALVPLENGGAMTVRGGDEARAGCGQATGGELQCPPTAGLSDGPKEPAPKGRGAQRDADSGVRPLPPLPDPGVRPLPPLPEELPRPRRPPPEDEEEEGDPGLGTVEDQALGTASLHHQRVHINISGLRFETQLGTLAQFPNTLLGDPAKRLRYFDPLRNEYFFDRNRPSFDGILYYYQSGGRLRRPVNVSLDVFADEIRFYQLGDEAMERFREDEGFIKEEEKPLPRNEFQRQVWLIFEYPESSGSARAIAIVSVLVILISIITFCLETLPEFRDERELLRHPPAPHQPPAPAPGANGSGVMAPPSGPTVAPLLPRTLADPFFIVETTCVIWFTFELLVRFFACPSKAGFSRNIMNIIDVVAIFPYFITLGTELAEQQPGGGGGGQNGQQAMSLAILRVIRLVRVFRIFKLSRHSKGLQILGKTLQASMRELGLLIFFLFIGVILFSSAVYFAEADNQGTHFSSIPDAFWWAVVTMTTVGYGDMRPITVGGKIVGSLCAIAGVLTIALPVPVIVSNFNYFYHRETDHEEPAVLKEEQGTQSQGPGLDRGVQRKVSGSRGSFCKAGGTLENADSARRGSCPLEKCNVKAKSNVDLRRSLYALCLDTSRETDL
Experimental: as §1, §2, §3, §4, §5, §6, §7, §8, §9, §10, §11, §12, §13, §14

[9] = system: conscious telemetered dogs; assay: in vivo; details: dog
Experimental: (§15) Telemetry implantation was performed as previously described (Lacroix et al., 2003). Approximately 2 weeks later, blood pressure, heart rate and ECG intervals were recorded per blocks of 30 s at the time points of interest for 30 min before and for 24 h after administration of test compound. ECG traces were inspected visually for any rhythm or conduction abnormalities (such as arrhythmia, tachyarrhythmia, atrioventricular conduction blocks), and values of PR, QRS and QT intervals were obtained by a validated manual reading procedure (mean calculated from three non‐consecutive sinus beats). The QT interval measured was corrected for heart rate using the Fridericia formula (QTcF) and the van de Waters formula. […] Five to six dogs (two or three males and three females) were studied with at least 48 h between each test session.
(§16) At the highest dose of 15 mg·kg^−1 p.o., this route provided an exposure (59 ± 25 ng·mL^−1), without any adverse CNS events (i.e. pre‐convulsive signs) in this species, close to the exposure recorded in humans at therapeutic doses. […] Pitolisant serum levels were assessed by LC‐mass spectrometry using a validated analytical method.

[10] = in vivo; details: both sexes, Beagle, dog, in vivo; for concentration at 1 h: po, 1 h after administration, read-out: total drug exposure (serum level)
Experimental: as §15, §16

[11] = target: T4, CaV3.2 (Homo sapiens, UniProt O95180); assay: Whole-cell patch clamp on CaV3.2 (ICaT); type: cell-based
T4 construct: expressed in transfected cells
T4 sequence (O95180 whole entry): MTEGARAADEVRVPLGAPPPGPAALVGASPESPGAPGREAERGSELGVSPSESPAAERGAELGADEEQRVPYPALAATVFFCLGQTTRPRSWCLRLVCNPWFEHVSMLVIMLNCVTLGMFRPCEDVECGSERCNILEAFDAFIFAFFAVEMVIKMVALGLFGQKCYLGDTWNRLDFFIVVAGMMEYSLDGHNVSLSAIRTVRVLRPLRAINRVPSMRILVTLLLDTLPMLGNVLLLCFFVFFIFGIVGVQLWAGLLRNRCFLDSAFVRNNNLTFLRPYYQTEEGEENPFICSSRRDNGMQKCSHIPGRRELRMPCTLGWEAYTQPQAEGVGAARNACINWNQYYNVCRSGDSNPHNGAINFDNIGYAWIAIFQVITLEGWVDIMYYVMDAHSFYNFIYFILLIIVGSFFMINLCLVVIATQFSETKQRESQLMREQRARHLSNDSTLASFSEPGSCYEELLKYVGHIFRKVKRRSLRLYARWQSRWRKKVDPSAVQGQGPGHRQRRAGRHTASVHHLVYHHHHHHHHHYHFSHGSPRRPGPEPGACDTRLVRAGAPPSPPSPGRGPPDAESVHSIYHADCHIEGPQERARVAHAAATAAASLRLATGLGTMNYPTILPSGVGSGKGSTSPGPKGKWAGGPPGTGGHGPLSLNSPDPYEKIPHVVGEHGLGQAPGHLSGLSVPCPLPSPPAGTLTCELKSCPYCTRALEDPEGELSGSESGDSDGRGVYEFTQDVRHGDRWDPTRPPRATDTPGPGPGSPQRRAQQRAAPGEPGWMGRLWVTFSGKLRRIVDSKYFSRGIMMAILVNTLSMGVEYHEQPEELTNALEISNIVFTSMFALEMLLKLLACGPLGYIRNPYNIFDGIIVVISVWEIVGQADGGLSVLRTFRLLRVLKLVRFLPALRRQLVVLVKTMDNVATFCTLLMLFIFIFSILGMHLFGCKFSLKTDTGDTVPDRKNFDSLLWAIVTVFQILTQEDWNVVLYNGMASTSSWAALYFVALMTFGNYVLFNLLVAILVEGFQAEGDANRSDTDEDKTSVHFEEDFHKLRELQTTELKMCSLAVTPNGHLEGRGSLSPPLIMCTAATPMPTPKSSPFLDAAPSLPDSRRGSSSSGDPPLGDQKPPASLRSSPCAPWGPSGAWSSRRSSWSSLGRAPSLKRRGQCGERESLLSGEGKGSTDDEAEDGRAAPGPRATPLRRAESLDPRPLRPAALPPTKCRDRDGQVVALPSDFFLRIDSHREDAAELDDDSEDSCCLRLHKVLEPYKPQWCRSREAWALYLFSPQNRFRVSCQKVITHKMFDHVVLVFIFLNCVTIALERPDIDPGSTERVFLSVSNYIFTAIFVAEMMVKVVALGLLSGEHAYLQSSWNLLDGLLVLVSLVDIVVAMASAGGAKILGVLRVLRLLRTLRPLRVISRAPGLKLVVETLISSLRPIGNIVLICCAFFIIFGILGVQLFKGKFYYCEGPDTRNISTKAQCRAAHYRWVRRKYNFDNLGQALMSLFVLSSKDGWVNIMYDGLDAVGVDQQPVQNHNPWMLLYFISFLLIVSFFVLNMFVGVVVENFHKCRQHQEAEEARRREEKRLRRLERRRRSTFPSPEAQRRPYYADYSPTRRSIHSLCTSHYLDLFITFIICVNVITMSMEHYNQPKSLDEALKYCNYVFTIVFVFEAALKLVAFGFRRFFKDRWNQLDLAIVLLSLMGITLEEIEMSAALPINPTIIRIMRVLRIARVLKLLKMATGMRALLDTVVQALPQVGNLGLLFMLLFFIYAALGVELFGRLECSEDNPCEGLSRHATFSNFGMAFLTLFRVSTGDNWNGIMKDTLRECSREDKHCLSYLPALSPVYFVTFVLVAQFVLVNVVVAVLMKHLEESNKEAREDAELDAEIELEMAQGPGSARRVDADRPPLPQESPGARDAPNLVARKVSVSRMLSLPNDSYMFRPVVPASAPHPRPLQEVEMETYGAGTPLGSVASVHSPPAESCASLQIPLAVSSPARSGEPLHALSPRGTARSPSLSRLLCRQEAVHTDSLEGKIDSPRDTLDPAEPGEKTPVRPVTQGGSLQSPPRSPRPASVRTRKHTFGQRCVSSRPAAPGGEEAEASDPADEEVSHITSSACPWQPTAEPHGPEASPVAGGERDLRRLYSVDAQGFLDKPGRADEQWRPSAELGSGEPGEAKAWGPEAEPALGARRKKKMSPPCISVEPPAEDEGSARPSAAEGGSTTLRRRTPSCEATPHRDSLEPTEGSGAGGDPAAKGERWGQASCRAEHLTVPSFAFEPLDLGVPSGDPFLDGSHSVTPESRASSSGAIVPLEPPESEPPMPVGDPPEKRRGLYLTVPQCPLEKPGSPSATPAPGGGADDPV
Experimental: as §1, §2, §3, §4, §5, §6, §7, §8, §9, §10, §11, §12, §13, §14

[12] = in vitro; details: human

Q: Which “Fitted IC50” value ([1]; KV7.1/mink IKs, Hill curve fit with Hill coefficient of one) does the source give for `Cl.Clc1ccc(CCCOCCCN2CCCCC2)cc1` [pitolisant, 1‐{3‐[3‐(4‐chlorophenyl)propoxy]propyl}piperidine, hydrochloride] here?
A: Its value is “No effect”.

Q: What about the IC50 ([1]; KV7.1/mink, IKs) of the same compound?
A: Its IC50 is greater than 10 µM.

Q: What about the protein-binding [2] of the same compound?
A: Its protein-binding is 96%.

Q: And the Ki [3]?
A: Its Ki is 2.9 µM.

Q: What about the “highest clinically relevant exposure” value [4] of the same compound?
A: The value was 72 ng/mL.

Q: And the Ki [5]?
A: The Ki was 1.2 µM.

Q: What about the IC50 ([6]; Kir2.1 IK1, Hill curve fit with Hill coefficient of one, read-out: Fitted IC50) of the same compound?
A: The IC50 was 16.5 µM.

Q: And the IC50 ([6]; Pitolisant IC50, Kir2.1, IK1)?
A: Its IC50 is no less than 10 µM.

Q: What about the IC50 [7] of the same compound?
A: Its IC50 is 1.3 µM.

Q: What about the “safety margin (hERG IC50 versus free drug concentration)” value ([7]; assuming 96% protein-binding and free concentration of […] at 40 mg maximal therapeutic dose) of the same compound?
A: Its value is “around 100”.

Q: And the IC50 ([8]; KV1.5 IKur, Hill curve fit with Hill coefficient of one, read-out: Fitted IC50)?
A: The IC50 was 13.8 µM.

Q: And the IC50 ([8]; Pitolisant IC50, KV1.5, IKur)?
A: The IC50 was no less than 10 µM.

Q: And the free drug concentration ([9]; both, Beagle, in vivo, iv)?
A: Its free drug concentration is ~ 0.14 μM.

Q: And the “effect on mean arterial blood pressure and heart rate” value ([9]; 4.5 mg·kg^−1 i.v., for up to 4 h after injection)?
A: Its value is “increases in mean arterial blood pressure and heart rate”.

Q: What about the “effect on QTcF interval” value ([9]; 4.5 mg·kg^−1 i.v., return to baseline 30 min after injection) of the same compound?
A: Its value is “decrease in QTcF interval for 20 min”.

Q: And the “total drug exposure (serum level)” value ([9]; 15 mg·kg^−1 p.o., 1 h after administration)?
A: Its value is 59.2 ± 24.6 ng/mL.

Q: And the “arrhythmia or other morphological changes in the ECG” value ([9]; over the test period, 6/6 dogs)?
A: Its value is “No arrhythmia or other morphological changes in the ECG”.

Q: And the “effect on heart rate, mean arterial blood pressure, QTc interval or any other ECG parameter” value ([9]; single doses 5, 10 and 15 mg·kg^−1 p.o. or 1.5 mg·kg^−1 i.v., compared to vehicle)?
A: Its value is “no effect”.

Q: What about the concentration at 5 min ([10]; iv, 1.5 mg·kg^−1 i.v., 5 min, read-out: total drug concentration) of the same compound?
A: The concentration at 5 min was 294 ± 40 ng/mL.

Q: What about the concentration at 30 min ([10]; iv, 1.5 mg·kg^−1 i.v., 30 min, read-out: total drug concentration) of the same compound?
A: The concentration at 30 min was 231 ± 36 ng/mL.

Q: And the concentration at 1 h ([10]; 5 mg·kg^−1 p.o.)?
A: The concentration at 1 h was 3.5 ± 1 ng/mL.

Q: What about the concentration at 1 h ([10]; 10 mg·kg^−1 p.o.) of the same compound?
A: The concentration at 1 h was 15.8 ± 5.8 ng/mL.

Q: And the concentration at 1 h ([10]; 15 mg·kg^−1 p.o.)?
A: The concentration at 1 h was 59 ± 25 ng/mL.

Q: What about the IC50 ([11]; CaV3.2 ICaT, Hill curve fit with Hill coefficient of one, read-out: Fitted IC50) of the same compound?
A: The IC50 was 25.7 µM.

Q: What about the IC50 ([11]; Pitolisant IC50, CaV3.2, ICaT) of the same compound?
A: The IC50 was no less than 10 µM.

Q: What about the fraction unbound [12] of the same compound?
A: The fraction unbound was roughly 0.04.
